Assay results published in patent publication US20240083857A1, “2-Methyl-Quinazolines” (Bayer Pharma Aktiengesellschaft, priority 2017, published 2024).

Tests used:
[1] = target: human SOS1 (loading of human K-Ras^G12C-GDP with fluorescent GTP-analog) (Homo sapiens, UniProt Q07889); test: Biochemical assay 3: K-Ras^G12C activation assay by hSOS1 (HTRF); conditions: no GTP; for IC50: read-out: Assay 3 (KRAS-Activation by SOS no GTP) activity expressed as IC50; for inhibition at 20 µM: read-out: Assay 3 (KRAS-Activation by SOS no GTP) activity expressed as % inhibition at 20 μM
[2] = target: K-Ras^G12C : hSOS1 interaction (Homo sapiens, UniProt Q07889); test: Biochemical assay 1: K-Ras^G12C interaction assay with hSOS1 (HTRF); format: binding; conditions: for IC50: read-out: Assay 1 (KRAS-SOS Interaction) activity expressed as IC50
Procedure: Biochemical assay 1: K-Ras^G12C Interaction Assay with hSOS1
This assay quantifies the equilibrium interaction of human SOS1 with K-Ras^Gl2C. Detection of the interaction is achieved by measuring homogenous time-resolved fluorescence resonance energy transfer (HTRF) from antiGST-Europium (FRET donor) bound to GST-K-Ras^G12C to anti-6His-XL665 bound to His-tagged hSOS1 (FRET-acceptor).
The assay buffer contained 5 mM HEPES pH 7.4 (Applichem), 150 mM NaCl (Sigma), 10 mM EDTA (Promega), 1 mM DTT (Thermofisher), 0.05% BSA Fraction V, pH 7.0, (ICN Biomedicals), 0.0025% (v/v) Igepal (Sigma) and 100 mM KF (FLUKA).
Concentrations of protein batches used were optimized to be within the linear range of the HTRF signal. A Ras working solution was prepared in assay buffer containing typically 10 nM GST-hK-RasG12C and 2 nM antiGST-Eu(K) (Cisbio, France). A SOS working solution was prepared in assay buffer containing typically 20 nM His-hSOS1 and 10 nM anti-6His-XL665 (Cisbio, France). An inhibitor control solution was prepared in assay buffer containing 10 nM anti-6His-XL665 without hSOS1.
(§1) Fifty nl of a 100-fold concentrated solution of the test compound in DMSO were transferred into a black microtiter test plate (384 or 1536, Greiner Bio-One, Germany). For this, either a Hummingbird liquid handler (Digilab, MA, USA) or an Echo acoustic system (Labcyte, CA, USA) was used.
(§2) All steps of the assay were performed at 20° C. A volume of 2.5 μl of the Ras working solution was added to all wells of the test plate using a Multidrop dispenser (Thermo Labsystems). After 2 min preincubation, 2.5 μl of the SOS working solution were added to all wells except for those wells at the side of the test plate that were subsequently filled with 2.5 μl of the inhibitor control solution. After 60 min incubation the fluorescence was measured with a Pherastar (BMG, Germany) using the HTRF module (excitation 337 nm, emission 1: 620 nm, emission 2: 665 nm).
(§3) IC50 values were calculated by 4-Parameter fitting using a commercial software package (Genedata Screener, Switzerland).

[3] = target: human SOS1 (nucleotide exchange of K-Ras^G12C) (Homo sapiens, UniProt Q07889); test: Biochemical assay 2: K-Ras^G12C activation assay by hSOS1 at high GTP concentration (HTRF); conditions: high GTP; for IC50: read-out: Assay 2 (KRAS-Activation by SOS high GTP) activity expressed as IC50; for inhibition at 20 µM: read-out: Assay 2 (KRAS-Activation by SOS high GTP) activity expressed as % inhibition at 20 μM
Source text: Biochemical Assay 2: K-Ras^G12C Activation Assay by hSOS1 at High GTP Concentration
This assay quantifies human SOS1-mediated nucleotide exchange of K-Ras^G12C preloaded with a fluorescent […] and in presence of an excess of free GTP. Loaded hK-Ras^G12C generates a high HTRF-signal by energy transfer from antiGST-Terbium (FRET donor) bound to K-Ras to the loaded fluorescent GDP analog (FRET-acceptor). SOS1 activity exchanges the fluorescent GDP for non-fluorescent GTP and therefore leads to a reduction of the HTRF signal.
The fluorescent GDP-analog EDA-GDP-Dy647P1 (2′/3′-O-(2-Aminoethyl-carbamoyl)-guanosine-5′-diphosphate labelled with Dy647P1 (Dyomics GmbH, Germany)) was synthesized by Jena Biosciences GmbH (Germany) and supplied as a 1 mM aqueous solution.
Concentrations of protein batches used were optimized to be within the linear range of the HTRF signal.
Preparation of GST-tagged hK-Ras^Gl2C loaded with fluorescent nucleotide was performed as follows: incubation of 11.5 μM hK-Ras^Gl2C with 5-fold excess GDP-Dy647 nucleotide (54 μM) in 500 μl NLS-buffer (RAS activation Kit Jena Bioscience, Kat. #PR-950) for 10 min at 37° C. Addition of 20 μl 1 M MgCl2 (Sigma) to final 40 mM and store on ice. Purification into buffer (10 mM HEPES pH 7.4 (Applichem), 150 mM NaCl (Sigma), 5 mM MgCl2 (Sigma)) by use of a PD-Minitrap desalting column (GE Healthcare). Concentration of 1 ml purified hK-Ras-GDP-Dy647 is approx. 4-5 μM.
The assay buffer contained 10 mM HEPES pH 7.4 (Applichem), 150 mM NaCl (Sigma), 5 mM MgCl2 (Sigma), 1 mM DTT (Thermofisher), 0.05% BSA Fraction V, pH 7.0, (ICN Biomedicals), 0.0025% (v/v) Igepal (Sigma).
A Ras working solution was prepared in assay buffer containing typically 80 nM loaded GST-hK-RasG12C-EDA-GDP-Dy647P1 and 2 nM antiGST-Tb (Cisbio, France). A hSOS1 working solution was prepared in assay buffer containing typically 8 nM His-hSOS1 and 100 μM GTP (Jena Bioscience, Germany). An inhibitor control solution was prepared in assay buffer containing the same concentration of […].
as §1
as §2, with “hSOS1” for “SOS”, “20” for “60”
as §3

Row | Compound | IC50 [1] [µM] | IC50 [2] [µM] | IC50 [3] [µM] | inhibition at 20 µM [1] [%] | inhibition at 20 µM [3] [%] | inhibition at 20 µM ([2]; read-out: Assay 1 (KRAS-SOS Interaction) activity expressed as % inhibition at 20 μM) [%]
1 | COc1cc2nc(C)nc(N[C@@H](C)c3ccc(-c4ccccc4C(=O)N(C)C)s3)c2cc1OC (racemic) [Example 48, 2-(5-{1-[(6,7-dimethoxy-2-methylquinazolin-4-yl)amino]ethyl}thiophen-2-yl)-N,N-dimethylbenzamide] | 4.52 | 2.12 | 3.27 |  |  | 
2 | COc1cc2nc(C)nc(N[C@@H](C)c3ccc(-c4ccncc4C)s3)c2cc1OC (racemic) [Example 53, 6,7-dimethoxy-2-methyl-N-{1-[5-(3-methylpyridin-4-yl)thiophen-2-yl]ethyl}quinazolin-4-amine] | 1.08 | 0.669 | 1.28 |  |  | 
3 | COc1cc2nc(C)nc(N[C@@H](C)c3ccc(-c4ccc5cc[nH]c5c4)s3)c2cc1OC (racemic) [Example 54, N-{1-[5-(1H-indol-6-yl)thiophen-2-yl]ethyl}-6,7-dimethoxy-2-methylquinazolin-4-amine] | 4.07 | 4.19 | 4.13 |  |  | 
4 | COc1cc2nc(C)nc(N[C@@H](C)c3ccc(-c4cncc(S(C)(=O)=O)c4)s3)c2cc1OC (racemic) [Example 127] |  | 17.8 |  | 42 | 44 | 
5 | COc1cc2nc(C)nc(N[C@@H](C)c3ccc(-c4cnc5[nH]ccc5c4)s3)c2cc1OC (racemic) [Example 129, 6,7-dimethoxy-2-methyl-N-{1-[5-(1H-pyrrolo[2,3-b]pyridin-5-yl)thiophen-2-yl]ethyl}quinazolin-4-amine] | 3.45 | 1.48 | 2.38 |  |  | 
6 | COc1cc2nc(C)nc(N[C@@H](C)c3ccc(-c4cccc(S(N)(=O)=O)c4)s3)c2cc1OC (racemic) [Example 130, 3-(5-{1-[(6,7-dimethoxy-2-methylquinazolin-4-yl)amino]ethyl}thiophen-2-yl)benzenesulfonamide] | 11.7 | 3.43 | 4.31 |  |  | 
7 | COc1cc2nc(C)nc(N[C@@H](C)c3ccc(-c4cnc(N)nc4)s3)c2cc1OC (racemic) [Example 131, N-{1-[5-(2-aminopyrimidin-5-yl)thiophen-2-yl]ethyl}-6,7-dimethoxy-2-methylquinazolin-4-amine] | 5.94 | 2.23 | 3.37 |  |  | 
8 | COc1cc2nc(C)nc(N[C@@H](C)c3ccc(/C=C/C4CC4)s3)c2cc1OC (racemic) [Example 132, N-[1-{5-[(E)-2-cyclopropylethenyl]thiophen-2-yl}ethyl]-6,7-dimethoxy-2-methylquinazolin-4-amine] |  | 6.58 | 8.05 | 46 |  | 
9 | CCOCc1ccccc1-c1ccc([C@H](C)Nc2nc(C)nc3cc(OC)c(OC)cc23)s1 (racemic) [Example 133, N-[1-{5-[2-(ethoxymethyl)phenyl]thiophen-2-yl}ethyl]-6,7-dimethoxy-2-methylquinazolin-4-amine] | 5.67 | 4.3 | 4.03 |  |  | 
10 | COc1cc2nc(C)nc(N[C@@H](C)c3ccc(-c4ccc(C(=O)NCCN(C)C)cc4)s3)c2cc1OC (racemic) [Example 142, 4-(5-{1-[(6,7-dimethoxy-2-methylquinazolin-4-yl)amino]ethyl}thiophen-2-yl)-N-[2-(dimethylamino)ethyl]benzamide] | 1.02 | 1.01 | 1.81 |  |  | 
11 | C/C=C(\C)c1ccc([C@H](C)Nc2nc(C)nc3cc(OC)c(OC)cc23)s1 (racemic) [Example 143, N-[1-{5-[(2E)-but-2-en-2-yl]thiophen-2-yl}ethyl]-6,7-dimethoxy-2-methylquinazolin-4-amine] | 17.8 | 7.64 | 8.76 |  |  | 
12 | COc1cc2nc(C)nc(N[C@@H](C)c3ccc(/C=C/Cc4ccccc4)s3)c2cc1OC (racemic) [Example 145, 6,7-dimethoxy-2-methyl-N-[1-{5-[(1E)-3-phenylprop-1-en-1-yl]thiophen-2-yl}ethyl]quinazolin-4-amine] |  |  |  | 11 | 18 | 40
13 | COc1cc2nc(C)nc(N[C@@H](C)c3ccc(-c4cc(N)ccc4C)s3)c2cc1OC (racemic) [Example 146, N-{1-[5-(5-amino-2-methylphenyl)thiophen-2-yl]ethyl}-6,7-dimethoxy-2-methylquinazolin-4-amine] | 1.48 | 0.911 | 1.5 |  |  | 
14 | COc1cc2nc(C)nc(N[C@@H](C)c3ccc(-c4c(C)noc4C)s3)c2cc1OC (racemic) [Example 147, N-{1-[5-(3,5-dimethyl-1,2-oxazol-4-yl)thiophen-2-yl]ethyl}-6,7-dimethoxy-2-methylquinazolin-4-amine] | 0.658 | 0.397 | 0.767 |  |  | 
15 | COc1cc2nc(C)nc(N[C@@H](C)c3ccc(-c4ccccc4S(C)(=O)=O)s3)c2cc1OC (racemic) [Example 148, 6,7-dimethoxy-2-methyl-N-[1-{5-[2-(methylsulfonyl)phenyl]thiophen-2-yl}ethyl]quinazolin-4-amine] | 3.06 | 1.41 | 3.4 |  |  | 
16 | COc1cc2nc(C)nc(N[C@@H](C)c3ccc(-c4ccccc4OC(F)(F)F)s3)c2cc1OC (racemic) [Example 150, 6,7-dimethoxy-2-methyl-N-[1-{5-[2-(trifluoromethoxy)phenyl]thiophen-2-yl}ethyl]quinazolin-4-amine] | 13.2 | 7.36 | 13.2 |  |  | 
17 | COc1cc2nc(C)nc(N[C@@H](C)c3ccc(-c4ccc5[nH]ccc5c4)s3)c2cc1OC (racemic) [Example 152, N-{1-[5-(1H-indol-5-yl)thiophen-2-yl]ethyl}-6,7-dimethoxy-2-methylquinazolin-4-amine] | 11.1 | 5.48 | 7.33 |  |  | 
